In ChEMBL document CHEMBL1130861, “Synthesis and proteinase inhibitory properties of diphenyl phosphonate analogues of aspartic and glutamic acids” (1998) one finds Activity data, which are given here for two molecules.

For assay [1], the target named is Granzyme B (Homo sapiens) (UniProt P10144). Description: Apparent second-order rate constant was determined by the inhibition of Granzyme B with the compound at the concentration 150 mM; ki/Ki(1/M*s), Not inhibited.
In another assay the test system is Staphylococcus aureus. Kind of assay: Apparent second-order rate constant was determined by the inactivation of Staphylococcus aureus V8 proteinase with the compound at the concentration 100 mM(pH 7.4); ki/Ki(1/M*s). Format: functional.

SMILES strings stand for the structures.

Sequence of Granzyme B (Homo sapiens) (P10144 whole entry): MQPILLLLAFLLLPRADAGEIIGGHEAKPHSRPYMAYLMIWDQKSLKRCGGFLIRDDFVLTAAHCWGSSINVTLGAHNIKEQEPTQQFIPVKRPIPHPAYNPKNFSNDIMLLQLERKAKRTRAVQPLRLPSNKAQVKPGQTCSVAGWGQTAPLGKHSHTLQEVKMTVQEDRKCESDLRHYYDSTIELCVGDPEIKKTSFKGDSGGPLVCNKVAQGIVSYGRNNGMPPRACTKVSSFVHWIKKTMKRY

On to `CC(=O)N[C@H](CCC(=O)O)P(=O)(Oc1ccccc1)Oc1ccccc1`, for which the Activity result is “No inhibition” in assay [1] and 5.3 in the assay on Staphylococcus aureus.
Taken in the same sequence, the figures for `CC(=O)N[C@H](CC(=O)O)P(=O)(Oc1ccccc1)Oc1ccccc1` were “No inhibition” and 5.
